Target: T1, SIRT1 (Homo sapiens, UniProt Q96EB6)
T1 sequence (Q96EB6 1-747): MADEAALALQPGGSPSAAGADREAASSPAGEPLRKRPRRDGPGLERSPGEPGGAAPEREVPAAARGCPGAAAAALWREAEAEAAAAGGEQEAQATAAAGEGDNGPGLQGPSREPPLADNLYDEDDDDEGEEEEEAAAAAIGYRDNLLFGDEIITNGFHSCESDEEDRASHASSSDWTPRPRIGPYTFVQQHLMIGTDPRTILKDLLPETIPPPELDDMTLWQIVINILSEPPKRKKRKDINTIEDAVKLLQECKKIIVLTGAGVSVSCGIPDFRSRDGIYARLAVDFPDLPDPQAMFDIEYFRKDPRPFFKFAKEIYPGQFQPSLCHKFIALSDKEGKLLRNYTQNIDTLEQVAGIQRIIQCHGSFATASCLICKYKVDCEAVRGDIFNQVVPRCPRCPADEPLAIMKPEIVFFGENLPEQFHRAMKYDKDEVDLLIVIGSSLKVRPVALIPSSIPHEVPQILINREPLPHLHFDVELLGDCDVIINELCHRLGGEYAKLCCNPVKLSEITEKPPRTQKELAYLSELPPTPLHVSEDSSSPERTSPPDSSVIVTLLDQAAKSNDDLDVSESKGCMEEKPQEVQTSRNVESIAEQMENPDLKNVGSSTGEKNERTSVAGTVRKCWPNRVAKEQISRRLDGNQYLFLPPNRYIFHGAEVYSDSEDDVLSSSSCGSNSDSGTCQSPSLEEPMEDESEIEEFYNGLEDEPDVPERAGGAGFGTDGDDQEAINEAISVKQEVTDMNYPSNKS
Assay: Mass spectrometry based SIRT1 deacetylase activation assay
Assay type: biochemical
Settings: for EC1.5 μM: 0.5 μM peptide substrate, 120 μM βNAD+, 10 nM SIRT1, 25 min, 25° C.; for Emax: 25 min, mass spectrometry assay, read-out: % Fold Act. (percent maximum fold activation)
From the text: A mass spectrometry based assay was used to identify modulators of SIRT1 activity. The mass spectrometry based assay utilizes a peptide having 20 amino acid residues as follows: Ac-EE-K(biotin)-GQSTSSHSK(Ac)NleSTEG-K(5TMR)-EE-NH2 (SEQ ID NO: 1) wherein K(Ac) is an acetylated lysine residue and Nle is a norleucine. The peptide is labeled with the fluorophore 5TMR (excitation 540 nm/emission 580 nm) at the C-terminus. The sequence of the peptide substrate is based on p53 with several modifications. In addition, the methionine residue naturally present in the sequence was replaced with the norleucine because the methionine may be susceptible to oxidation during synthesis and purification.
The mass spectrometry assay is conducted as follows: 0.5 μM peptide substrate and 120 μM βNAD^+ is incubated with 10 nM SIRT1 for 25 minutes at 25° C. in a reaction buffer (50 mM Tris-acetate pH 8, 137 mM NaCl, 2.7 mM KCl, 1 mM MgCl2, 5 mM DTT, 0.05% BSA). Test compounds may be added to the reaction as described above. […] After the 25 minute incubation with SIRT1, 10 μL of 10% formic acid is added to stop the reaction. Reactions are sealed and frozen for later mass spec analysis. Determination of the mass of the substrate peptide allows for precise determination of the degree of acetylation (i.e. starting material) as compared to deacetylated peptide (product).
A control for inhibition of sirtuin activity is conducted by adding 1 μL of 500 mM nicotinamide as a negative control at the start of the reaction (e.g., permits determination of maximum sirtuin inhibition). A control for activation of sirtuin activity is conducted using 10 nM of sirtuin protein, with 1 μL of DMSO in place of compound, to determine the amount of deacetylation of the substrate at a given timepoint within the linear range of the assay. This timepoint is the same as that used for test compounds and, within the linear range, the endpoint represents a change in velocity.
For the above assay, SIRT1 protein was expressed and purified as follows. […] The protein was expressed by induction with 1 mM IPTG as an N-terminal His-tag fusion protein at 18° C. overnight and harvested at 30,000×g. Cells were lysed with lysozyme in lysis buffer (50 mM Tris-HCl, 2 mM Tris[2-carboxyethyl]phosphine (TCEP), 10 μM ZnCl2, 200 mM NaCl) and further treated with sonication for 10 min for complete lysis. The protein was purified over a Ni-NTA column (Amersham) and fractions containing pure protein were pooled, concentrated and run over a sizing column (Sephadex S200 26/60 global). The peak containing soluble protein was collected and run on an Ion-exchange column (MonoQ). Gradient elution (200 mM-500 mM NaCl) yielded pure protein. This protein was concentrated and dialyzed against dialysis buffer (20 mM Tris-HCl, 2 mM TCEP) overnight. The protein was aliquoted and frozen at −80° C. until further use.

| SMILES | EC1.5 μM | Emax |
| --- | --- | --- |
| CS(=O)(=O)c1ccccc1-c1cc(=O)c2cccc(NC(=O)c3ccccn3)c2o1 [Compound 241] | B (EC1.5 1-25 μM) | > 200% |
| O=C(Nc1cccc2c(=O)cc(-c3ccccc3F)oc12)c1cscn1 [Compound 279] | C (EC1.5>25 μM) | < 200% |
| Cc1cnc(NC(=O)c2cccc3c(=O)cc(-c4ccccc4F)oc23)s1 [Compound 271] | C (EC1.5>25 μM) | < 200% |
| O=C(Nc1cccc2c(=O)cc(-c3ccccc3OC(F)F)oc12)c1cnccn1 [Compound 263] | C (EC1.5>25 μM) | < 200% |
| Cn1cc(C(=O)Nc2cccc3c(=O)cc(-c4ccccc4C(F)(F)F)oc23)cn1 [Compound 269] | B (EC1.5 1-25 μM) | > 200% |
| O=C(Nc1cccc2c(=O)cc(-c3ccccc3C(F)(F)F)oc12)c1cnccn1 [Compound 261] | A (EC1-5<1.0) | > 200% |
| O=C(Nc1cccc2c(=O)cc(-c3ccccc3C(F)(F)F)oc12)c1cocn1 [Compound 272] | B (EC1.5 1-25 μM) | > 200% |
| Cc1ccccc1-c1cc(=O)c2cccc(NC(=O)c3cscn3)c2o1 [Compound 274] | C (EC1.5>25 μM) | < 200% |
| O=C(Nc1cccc2c(=O)cc(-c3ccc(OC(F)(F)F)cc3)oc12)c1cnccn1 [Compound 233] | C (EC1.5>25 μM) | < 200% |
| O=C(Nc1cccc2c(=O)cc(-c3cccnc3)oc12)c1cscn1 [Compound 215, N-(4-oxo-2-(pyridin-3-yl)-4H-chromen-8-yl)thiazole-4-carboxamide] | C (EC1.5>25 μM) | < 200% |
| CS(=O)(=O)c1ccccc1-c1cc(=O)c2cccc(NC(=O)c3cscn3)c2o1 [Compound 266] | B (EC1.5 1-25 μM) | < 200% |
| CS(=O)(=O)c1cccc(-c2cc(=O)c3cccc(NC(=O)c4ccccn4)c3o2)c1 [Compound 218] | B (EC1.5 1-25 μM) | < 200% |
| O=C(Nc1cccc2c(=O)cc(-c3cccc(OC(F)(F)F)c3)oc12)c1cnccn1 [Compound 203] | B (EC1.5 1-25 μM) | < 200% |
| Cc1cnc(NC(=O)c2cccc3c(=O)cc(-c4ccccc4OC(F)(F)F)oc23)s1 [Compound 275] | C (EC1.5>25 μM) | < 200% |
| O=C(Nc1cccc2c(=O)cc(-c3ccc(C(F)(F)F)cc3)oc12)c1cscn1 [Compound 228] | C (EC1.5>25 μM) | < 200% |
| O=C(Nc1ccccn1)c1cccc2c(=O)cc(-c3cccc(C(F)(F)F)c3)oc12 [Compound 207] | C (EC1.5>25 μM) | < 200% |
| O=C(Nc1cccc2c(=O)cc(-c3cccc(C(F)(F)F)c3)oc12)c1cscn1 [Compound 204, N-(4-oxo-2-(3-(trifluoromethyl)phenyl)-4H-chromen-8-yl)thiazole-4-carboxamide] | B (EC1.5 1-25 μM) | < 200% |
| O=C(Nc1cccc2c(=O)cc(-c3ccc(N4CCOCC4)cc3)oc12)c1cscn1 [Compound 229] | C (EC1.5>25 μM) | < 200% |
| CS(=O)(=O)c1cccc(-c2cc(=O)c3cccc(C(=O)Nc4ccccn4)c3o2)c1 [Compound 221] | C (EC1.5>25 μM) | < 200% |
| CS(=O)(=O)c1cccc(-c2cc(=O)c3cccc(NC(=O)c4cccnc4)c3o2)c1 [Compound 242] | C (EC1.5>25 μM) | < 200% |
| Cn1nccc1C(=O)Nc1cccc2c(=O)cc(-c3ccccc3C(F)(F)F)oc12 [Compound 257] | A (EC1-5<1.0) | > 200% |
| O=C(Nc1cccc2c(=O)cc(-c3cccc(C(F)(F)F)c3)oc12)c1cnccn1 [Compound 205] | C (EC1.5>25 μM) | < 200% |
| O=C(Nc1cccc2c(=O)cc(-c3ccccc3C(F)(F)F)oc12)c1cscn1 [Compound 227, N-(4-oxo-2-(2-(trifluoromethyl)phenyl)-4H-chromen-8-yl)thiazole-4-carboxamide] | A (EC1-5<1.0) | > 200% |

Other lines, results leading:

| EC1.5 μM | Emax | SMILES |
| --- | --- | --- |
| B (EC1.5 1-25 μM) | > 200% | O=C1CCC(C(=O)Nc2cccc3c(=O)cc(-c4ccccc4C(F)(F)F)oc23)N1 (stereo not shown) [Compound 313, 5-oxo-N-(4-oxo-2-(2-(trifluoromethyl)phenyl)-4H-chromen-8-yl)pyrrolidine-2-carboxamide] |
| A (EC1-5<1.0) | > 200% | O=C(Nc1cccc2c(=O)cc(-c3ccccc3Cl)oc12)c1cncc(N2CCOCC2)n1 [Compound 319] |
| A (EC1-5<1.0) | > 200% | O=C(Nc1cccc2c(=O)cc(-c3ccccc3C(F)(F)F)oc12)c1cccc(CN2CCCC2)n1 [Compound 320] |
| C (EC1.5>25 μM) | < 200% | Cc1cnc(NC(=O)c2cccc3c(=O)cc(-c4ccccc4C(C)C)oc23)s1 [Compound 285] |
| C (EC1.5>25 μM) | < 200% | O=C(Nc1cccc2c(=O)cc(-c3cc(F)ccc3Cl)oc12)c1cnccn1 [Compound 300] |
| B (EC1.5 1-25 μM) | > 200% | O=C(Nc1cccc2c(=O)cc(-c3c(Cl)cccc3Cl)oc12)c1cnccn1 [Compound 302] |
| A (EC1-5<1.0) | > 200% | O=C(Nc1cccc2c(=O)cc(-c3ccccc3C(F)(F)F)oc12)c1cccc(OCC(O)CO)n1 (stereo not shown) [Compound 318] |
| A (EC1-5<1.0) | > 200% | O=C(Nc1cccc2c(=O)cc(-c3ccccc3C(F)(F)F)oc12)c1cncc(N2CCOCC2)n1 [Compound 316] |
| C (EC1.5>25 μM) | < 200% | O=C(Nc1cccc2c(=O)cc(-c3c(F)cccc3F)oc12)c1cnccn1 [Compound 290] |
| A (EC1-5<1.0) | > 200% | O=C(Nc1cccc2c(=O)cc(-c3ccccc3Cl)oc12)c1cscn1 [Compound 281] |
| B (EC1.5 1-25 μM) | > 200% | O=C(Nc1cccc2c(=O)cc(-c3cccnc3C(F)(F)F)oc12)c1cnccn1 [Compound 306, N-(4-oxo-2-(2-(trifluoromethyl)pyridin-3-yl)-4H-chromen-8-yl)pyrazine-2-carboxamide] |
| B (EC1.5 1-25 μM) | > 200% | O=C(Nc1cccc2c(=O)cc(-c3ccccc3Cl)oc12)c1cccc(CN2CCOCC2)c1 [Compound 330] |
| A (EC1-5<1.0) | > 200% | O=C(Nc1cccc2c(=O)cc(-c3cccnc3C(F)(F)F)oc12)c1cscn1 [Compound 307] |
| C (EC1.5>25 μM) | < 200% | O=c1cc(-c2ccccc2C(F)(F)F)oc2c(NS(=O)(=O)c3cccnc3)cccc12 [Compound 326, N-(4-oxo-2-(2-(trifluoromethyl)phenyl)-4H-chromen-8-yl)pyridine-3-sulfonamide] |
| B (EC1.5 1-25 μM) | > 200% | O=C(Nc1cccc2c(=O)cc(-c3ccccc3C(F)(F)F)oc12)c1cccnc1OCC(O)CO (stereo not shown) [Compound 321] |

Reference: patent publication US8987258B2 (priority 2008, dated 2015)
